Data reported in patent US20220280423A1, “GLYMPHATIC DELIVERY BY MANIPULATING PLASMA OSMOLARITY” (University of Rochester, priority 2018, published 2022).
“Also recorded” adds a separate entry of the source. Marks after values point to notes of the source that are not given here.

Tests used:
[1] = Stability of ^111In-LA-DOTA complex in CSF or brain homogenate (radio-TLC); type: in vitro ADME, rat; settings: CSF and BH, 37° C., over 48 hours
Method: To obtain CSF and brain homogenate for assessing AuNP stability, rats were anesthetized with subcutaneous ketamine (100 mg/kg) and dexmedetomidine (0.5 mg/kg) and fixed to a stereotaxic frame after verification of loss of response to painful stimuli. The cisterna magna was exposed and CSF was carefully drawn using a syringe and a 30 G needle. The rats were euthanized, the brains were quickly dissected and cut in four quarters. Each quarter was mixed in 5 mL phosphate-buffered saline (PBS) using a homogenizer. Both the CSF and brain homogenates were stored at —80° C. To allow UV-VIS characterization at low radioactivity level, radiolabeled AuNPs were mixed with non-radiolabeled, PEG-coated AuNPs from the same batch (see section 2.2). The gold concentration was the same in both AuNPs samples (0.373 mg/mL). […]
Free ^111In-LA-DOTA: The following mixtures were prepared and analyzed: 1) CSF (30 μL)+^111In-LA-DOTA complex solution (30 μL), 2) Brain homogenate (15 μL)+PBS (15 μL)+^111In-LA-DOTA complex solution (30 μL). […] The mixtures were incubated at 37° C. and samples were analyzed by radio-TLC at 0, 4, 24, and 48 hours. […]

[2] = Head-focused SPECT/CT of ^111In—AuNP or ^111In-LA-DOTA infused to the cisterna magna, 0-3 h; type: in vivo, Sprague-Dawley rats; set-up: AUC0-3 h Striatum / AUC0-3 h Thalamus / AUC0-3 h Intracranial / AUC0-3 h Brain / AUC0-3 h Cervical spine / AUC0-3 h Nasal turbinates / AUC0-3 h Pharyngeal lymph vessel / AUC0-3 h Deep lymph nodes: concentration or dose not given beside the values; settings: VEH (isotonic saline i.p.)
Method: Cisterna magna cannulation was performed as previously described with minor modifications (Xavier et al. J Vis Exp e57378-e57378 (2018)). Rats were anesthetized with a mixture of ketamine (100 mg/kg) and dexmedetomidine (0.5 mg/kg), administered subcutaneously in a volume of 2 ml/kg. After verification of loss of response to toe pinch, animals were placed in a stereotaxic frame and the neck slightly flexed (30°). The atlanto-occipital membrane overlying the cisterna magna was surgically exposed and a 30 G short-bevelled dental needle connected to PE10 tubing was carefully inserted into the intrathecal space. The catheter was fixed to the dura with cyanoacrylate glue and dental cement.
For post-operative analgesia, rats that were imaged for 24 hours received 5 mg/kg carprofen (Rimadyl® vet, 50 mg/mL, Orion Pharma, Espoo, Finland) s.c. at the beginning of surgery. Temperature was monitored and normothermia was maintained with a heating pad. […] The total volume of 32 μL was infused over 20 minutes. Five minutes before the AuNP infusion started, rats received either hypertonic saline (1 M, 20 mL/kg i.p.) or isotonic saline (0.154 M, 20 mL/kg i.p.). In the MRI experiments, all rats received a hypertonic saline injection, and the infusion rate of Gd-labelled nanoparticles was the same, but the total infusion volume was 80 μL.
Radioactivity of the infused dose was measured with VIK-202 dose calibrator (Comecer, Joure, The Netherlands). The Vector4CT (MILabs, Utrecht, Netherlands) system was used for SPECT/CT imaging. SPECT images were acquired with a high energy ultra high resolution rat 1.8 mm pinhole collimator (HE-UHR-RM 1.8 mm ph). Acquired images were reconstructed using Similarity-Regulated Ordered Subsets […] (SROSEM) with a voxel size of 0.6 mm and 5 iterations. Both decays at the 111-In photopeaks (±20%) and background at 20% outside each photopeak window) were individually used for the reconstruction. Two highly accurate energy dependent system matrices for iterative image reconstruction (SROSEM' Vaissier, P. E. B., Beekman, F. J. & Goorden, M. C. Similarity-regulation of OS-EM for accelerated SPECT reconstruction. Physics in Medicine and Biology 61, 4300-4315 (2016)) were used to minimize artifacts in ^111In imaging with high local uptake and no background activity in surrounding structures. In each matrix the effects of energy dependent pinhole penetration (calculated using a ray tracer, Goorden et al. Physics in Medicine and Biology 61, 3712-3733 (2016)) and intrinsic detector resolution with depth of interaction (DOI) effects in the crystal were modelled. The DOI effect was calculated using GATE Monte Carlo simulations (Jan, S. et al. Physics in Medicine and Biology 49, 4543-4561 (2004)) that was stored in tables and used in the raytracer. Matrices were generated for 171 keV and 245 keV photons and were used during the reconstruction from projections of the corresponding energy peaks. The resulting SPECT images were then added and averaged to obtain the final ^111In image. Head and full-body CT images were acquired directly after the SPECT scans in the same imaging session. SPECT data were attenuation corrected, decay corrected to the half-life of ^111In, and corrected for injected activity, with each voxel representing the percentage of the injected dose per cm^3 (%ID/cm^3).
Head and full-body CT images from each imaging session were nonlinearly registered using Advanced Normalization Tools (ANTs) to the appropriate population-based CT template (described below). Regions of interest (ROIs) were then either drawn manually in on individual CT images, manually in the template space, or were computed automatically in the case of the delineation between CSF and brain described below. Manual ROIs were drawn using ITK-SNAP software. Spherical ROIs (Ø 1.4 mm) for striatum and thalamus were placed using the in-house MRI template as reference. […]

O=C(O)CN1CCN(CC(=O)O)CCN(CC(=O)NCCNC(=O)CCCCC2CCSS2)CCN(CC(=O)O)CC1 (stereo not drawn) [^111In-LA-DOTA, 2,2′,2″-(10-(2-((2-(5-(1,2-dithiolan-3-yl)pentanamido)ethyl)amino)-2-oxoethyl)-1,4,7,10-tetraazacyclododecane-1,4,7-triyl)triacetic acid, metal not drawn]
stability of the chelate (release of ^111In from the chelator) [1]: stable; also recorded: did not result in appreciable destabilization
AUC0-3 h Brain [2]: 84.2 ± 13.6^c % ID · h
AUC0-3 h CSF [2]: 40.2 ± 9.4 % ID · h
AUC0-3 h Cervical spine [2]: 126.5 ± 30.32 % ID/cm^3 · h
AUC0-3 h Deep lymph nodes [2]: 0.1 ± 0.1^f % ID/cm^3 · h
AUC0-3 h Nasal turbinates [2]: 2.4 ± 1.4^b % ID/cm^3 · h
AUC0-3 h Pharyngeal lymph vessel [2]: 0.5 ± 0.1^d % ID/cm^3 · h
AUC0-3 h Striatum [2]: 4.5 ± 1.5 % ID/cm^3 · h
AUC0-3 h Thalamus [2]: 7.5 ± 4.2^k % ID/cm^3 · h
Peak tracer mass Brain [2]: 39.6 ± 4.3 % ID
Peak tracer mass CSF [2]: 27.3 ± 3.5 % ID
Peak tracer mass Intracranial [2]: 65.4 ± 6.0 % ID
Peak tracer mass Striatum [2]: 4.3 ± 1.6 % ID/cm^3
Peak tracer mass Thalamus [2]: 8.3 ± 3.1^n % ID/cm^3
Residual after 3 h Brain [2]: 20.6 ± 5.0^g % ID
Residual after 3 h CSF [2]: 4.9 ± 1.3 % ID
Residual after 3 h Intracranial [2]: 25.5 ± 6.2 % ID
AUC0-3 h Intracranial ([2]; intracisternal infusion, rats): 124.4 ± 22.5 % ID · h
